No end group written: not given here.
How the values were obtained:
CD44v6 = experiment: HGF-induced activation of Met and ERK in L3.6pl cells (Western blot); assay type: cell-based, human; details: FIG. 20A right side, activation of Erk determined
Protocol: Serum-starved cells (24 hours) were induced with the growth factor HGF (10 ng/mL) at 37° C. for 5 minutes. Where indicated, the cells were treated with peptides (100 ng/ml) prior to induction at 37° C. for 10 minutes (100 ng/mL CD44v6 peptide or control peptide). Following the induction with HGF, cells were washed with ice-cold phosphate-buffered saline (PBS). To detect activated Met and ERK, cells were lysed in sodium dodecyl sulfate (SDS)—sample buffer containing 100 mM dithiothreitol (DTT), boiled and subjected to western blot analysis using antibodies against phospho-Met and ERK. The loading controls were performed on the same blot after stripping (62.5 mM Tris, pH 6.8, 2% SDS, 0.8% DTT) by probing with the Met respectively Erk antibody. Blots were stained using the enhanced chemiluminescence system (Thermo Fisher Scientific, Schwerte, Germany). Bands in western blot analysis were quantified with the program Image J (National Institutes of Health).
To expand the studies to human pancreatic tumors, the highly metastatic human pancreatic carcinoma cells L3.6pl (Bruns, et al. Neoplasia (1999), 1(1):50-62) were investigated. These cells originate from the […] cells that have been passaged several times in the liver and the pancreas, a step that rendered them more and more metastatic. It was confirmed that Met is dependent on CD44v6 for its activation and signaling in these cells (FIG. 19A). The L3.6pl cells were treated with HGF in the presence or absence of a human v6 peptide of SEQ ID NO: 2 or SEQ ID NO:6 and Met activation and downstream signaling to ERK was measured. Phosphorylation of both Met and ERK was inhibited by the human v6 peptide. Treatment with a corresponding rat v6 peptide (ctrl peptide, SEQ ID NO: 10 or 11) had no influence on receptor activation and signal transduction (FIG. 19A).
The contribution of CD44v6 to Met signaling in the human epithelial pancreatic cancer cells L3.6pl (derived from Colo 357), the cervix carcinoma cells HeLa and the colon cancer cells HT29 were analysed using the CD44v6 peptide (v6 14mer; v6 5mer tested as well, data not shown).

L3.6pl cells = experiment: Staining of fixed L3.6pl cells with DY681-labeled peptides (confocal microscopy); assay type: binding, human; details: DY681-labeled peptide
Protocol: ASs6 or L3.6pl cells were seeded at 5,000 cells/well of a Lab-TekR Chamber Slide™ (Nunc, Napierville, Ill., USA). On the following day the cells were washed with cold PBS and fixed with 4% Formalin for 30 min at RT. Unspecific binding was blocked with 1% BSA in PBS for 1 hour at RT. The cells were incubated for 1 hour with the DY681-labeled peptides. After three washing steps with PBS the cover slips were mounted with Fluorescence Mounting Medium (Dako, Glostrup, Denmark) and the immunofluorescence was measured by a laser scanning confocal microscope Leica TCS2 SP2 (Exton, Pa., USA) and processed using Leica confocal software. A 20× objective was used for imaging.

L3.6pl tumors = experiment: In vivo and ex vivo imaging (Pearl Imager) of mice with L3.6pl tumors; parameters: species or system mouse; details: 24 h after injection
Protocol: In vivo imaging of the mice with the L3.6pl tumors was performed using the Pearl™ Imager (LI-COR Biosciences, Bad Homburg, Germany) The system uses two lasers (685 and 785 nm) for excitation and a charge-coupled device detector for signal detection. The laser excitation enables a deep tissue penetration. With the near-infrared detection a high sensitivity due to the reduced tissue auto-fluorescence is achieved. In order to standardize the images we made use of the Pearl Cam Software. The animals were fed with chlorophyll-reduced food to reduce the fluorescence background one week before imaging (Regime 210, safe-diets, Augy, France). Prior to imaging the mice were anesthetized with 2.0% isoflurane. Animals were placed on the heated plate of the imager and continuous delivery of isoflurane was achieved through a nose cone in the imaging drawer. Images were captured at white light, 700 and 800 nm Animals were imaged prior to i.v. peptide injection and 24 h after injection with either DY681-labeled human v6 peptide or DY681-labeled rat v6 peptide as control Immediately after each imaging session animals were killed, tumor, liver and spleen isolated and scanned ex vivo at white light, 700 and 800 nm.
Then, the specificity of binding of the human CD44v6 peptide to the tumor in vivo was examined using the small animal imaging system Pearl Impulse. […]

Sequence: WFGNRWHEGYR (also: DY681 fluorescent dye label) [labeled human v6 peptide, human 11mer labeled with the fluorescent dye DY681]
- Met activation (HGF-induced) with DY681-labeled peptides (CD44v6): inhibited Met activation
- Binding to L3.6pl cells in cell culture (L3.6pl cells): bound to these cells in cell culture
- Ex vivo fluorescence of isolated organs (tumor, liver, spleen) (L3.6pl tumors; mice with L3.6pl tumors): binding not only to primary tumors but also to areas of the liver
- Accumulation of fluorescence in the tumor in vivo (L3.6pl tumors; mice with orthotopic L3.6pl tumors, 20 μg i.v.): accumulated specifically in the tumor
